Experiments:
[1] = test system: OCI-AML 3, Kasumi-1 and APL NB4 cells; test: Clonogenic growth of AML cell lines in the presence or absence of stroma; type: cell-based; conditions: for clonogenic growth (CFU) compared to control: off and on stroma, NB4: 10^-7 M IRX5183, 10^-8 M AM80, OCI-AML3, Kasumi-1: 10^-6 M IRX5183, 10^-7 M AM80; for clonogenic growth: presence or absence of stroma
Experimental: The BM stroma, which expresses inducibly high levels of CYP26, metabolically inactivates ATRA and provides a protected environment for AML cancer stem cells. Synthetic, CYP26-resistant RARα agonists, such as IRX5183 and AM80, should be able to bypass stroma-mediated protection of AML cells and differentiate the cancer stem cells resident in the protected environment of bone marrow niche. To test these hypotheses, clonogenic growth experiments were conducted in the non-APL AML cell lines OCI-AML 3 and Kasumi-1 and APL NB4 cells, which were treated with ATRA, IRX5183, and AM80 in the presence or absence of stroma.

[2] = test system: FLT3/ITD acute myeloid leukemia (AML) cells; conditions: recent studies; cited from earlier work
[3] = test system: AML; conditions: patients; cited from earlier work
[4] = test system: non-APL AML cells; conditions: in vitro; cited from earlier work
[5] = test system: H929 luciferase+ (Luc+) cells; test: Systemic MM xenograft, bioluminescence imaging; type: in vivo, NSG mice; conditions: 4 weeks; for tumor burden (bioluminescence): monotherapy, BTZ 0.5 mg/kg i.p. twice weekly or IRX 10 mg/kg once daily
Experimental: For the systemic MM model, 2×10^6 Luc+/GFP+H929 cells were injected via the tail vein into 16-week-old male NSG mice. After engraftment, as determined by an exponential increase in bioluminescence, mice were treated with BTZ (0.5 mg/kg i.p.) twice weekly and with IRX (10 mg/kg) once daily. Tumor burden was assessed by bioluminescence, as above.
To test whether retinoids can enhance BTZ activity in MM, a systemic MM xenograft was developed by injecting 2×10^6 H929 luciferase+(Luc+) cells via the tail vein of nonobese, diabetic, severe combined immunodeficiency IL-2 receptor γ-KO (NSG) mice. The animals were randomized to receive IRX, BTZ, or a combination of both, and disease burden was followed weekly by bioluminescence imaging (FIG. 4).

[6] = test system: H929 Luc+ cells with WT or Smo-KO stroma; test: Subcutaneous xenograft model of MM-niche interactions (WT or Smo-KO stroma); type: in vivo, NSG mice
Experimental: Mouse xenografts. 1×10^6 H929 Luc+ cells and 1×10^6 mouse BM stromal cells were resuspended in 100 μl Matrigel, diluted with RPMI (1:1), and injected subcutaneously into 16-week-old male NSG mice. After 4 days, treatment with BTZ (0.5 mg/kg i.p. twice weekly) and IRX (10 mg/kg i.p. daily) was initiated. Tumor burden was assessed by bioluminescence using the In Vivo Imaging System (PerkinElmer). For imaging, mice were exposed to 120 mg/kg D-luciferin via intraperitoneal injection […] before imaging and were anesthetized using isoflurane. Images were analyzed with Living Image Software, version 2.5 (PerkinElmer), and data were quantified as photons/second.
To study to what extent an RA-low environment created by the BM stroma and enhanced by MM cells via paracrine Hedgehog signaling contributes to BTZ resistance, a xenograft model of MM-niche interactions was developed. Each mouse carried 2 subcutaneous tumors consisting of H929 Luc+ cells and either WT (anterior tumors) or Smo-KO stroma (posterior tumors). Mice were treated with IRX (10 mg/kg i.p. daily), BTZ (0.5 mg/kg i.p. twice weekly), or a combination of both. The growth of tumors bearing WT or Smo-KO stroma was not different in untreated or IRX-treated groups (FIGS. 7 and 8). […] While some tumors in the treatment group receiving combined IRX and BTZ appeared to have regressed completely, even after anatomical study, this was not the case for all the mice in this group.

[7] = test system: MM cell lines and MM CD138+ primary cells; test: BTZ sensitivity (clonogenic or cellular recovery) of MM cells after incubation with BM stroma; type: cell-based, human; conditions: for effect on stroma-induced BTZ resistance: stroma coculture with compound 1 μM 5 days
Experimental: (§1) Coculture experiments. 24-well plates were coated with 0.1% gelatin in PBS for 30 min at 37° C. The gelatin solution was removed, and the stromal cells were cultured overnight at a density of 5×10^4 cells/well to obtain a confluent monolayer. At that time, MM cell lines or primary MM cells (1×10^5 in 2 ml) were added to the stroma cultures. The stroma cocultures were incubated at 37° C. in RPMI containing 10% FCS, L-glutamine, and P/S, with or without AGN19194310 (1 μM for 5 days), R115866 (1 μM for 5 days), IRX5183 (1 μM for 5 days), or BTZ (2.5 nM for 48 hr).
Mobilization experiments. MM cells were separated from BM stromal cells by gently pipetting several times around the well. Detached cells were centrifuged, resuspended in fresh media, and incubated in a 24-well plate for 1 hr at 37° C. During this short incubation period, contaminating stromal cells attached to the well, while MM cells remained in suspension. MM cells were then recovered by gently pipetting. This protocol was used for qRT-PCR and CFU coculture experiments. The purity achieved using this protocol was confirmed by flow cytometry to be 98%-99% MM cells and less than 2% contaminating stroma.
Clonogenic assays. After treatment, MM cells were collected, washed with PBS, and plated at a density of 5,000 cells/ml in 1 ml of 1.32% methylcellulose supplemented with 30% FBS, 10% BSA, L-glutamine, P/S, and 0.1 mM p-ME. Cells were plated in triplicate in 35-mm culture dishes, incubated at 37° C., and scored for the presence of colonies 14 days later.

[8] = test system: BM stromal cells; test: Effect of soluble factors on CYP26A1 expression in BM stromal cells; type: cell-based; conditions: soluble factor added to BM stromal cells
Experimental: (§2) qRT-PCR. Total RNA was extracted using the RNeasy Mini Kit (QIAGEN) according to the manufacturer's instructions. cDNA was synthesized by reverse transcription using the iScript cDNA Synthesis Kit (Bio-Rad). qRT-PCR was performed with iTaq SYBR Green Supermix (Bio-Rad) using sequence specific primers. Gene expression was normalized to GAPDH, and relative quantification was calculated using ΔΔCt. All experiments were performed in duplicate and run on the Bio-Rad CFX96 machine.

[9] = test system: MM cells; test: Surface CD138 expression of MM cells by flow cytometry; type: cell-based, human
Experimental: as §1
Flow cytometry. Following treatment, MM cells were collected, washed with PBS, and stained for 15 min at room temperature with phycoerythrin-conjugated (PE-conjugated) anti-CD138. Cells were washed to remove unbound antibody and evaluated in a FACSCalibur system (BD Biosciences). Stromal cells were identified by GFP expression, and viable cells were identified using 7-aminoactinomycin D (7-AAD). To calculate cell numbers, live GFP-cells were normalized to calibration beads.

[10] = test system: MM H929 cell lines and MM CD138+ primary cells; test: qRT-PCR of B cell and PC markers in MM cells with or without BM stroma coculture; type: cell-based, human; conditions: for expression of differentiation markers by qRT-PCR or flow cytometry: liquid conditions versus BM stroma; for mRNA expression of B cell and PC markers (BCL6, BLIMP1, XBP1s, CHOP): compound 1 μM for 5 days
Experimental: Cell cultures. All cell lines were purchased from the American Type Culture Collection. H929, MM1s, and U266 cells were cultured in RPMI 1640 with 10% FCS (Sigma-Aldrich), 2 mM L-glutamine, and 100 μg/ml penicillin-streptomycin (P/S). OP-9 cells were cultured in α-MEM, 20% FCS, L-glutamine, and P/S. Cell lines were authenticated by short-tandem repeat profiling.
Primary MM cells were obtained from patients with newly diagnosed or relapsed MM under an IRB-approved protocol at The Johns Hopkins University. Briefly, mononuclear cells were isolated from fresh BM aspirates by density gradient centrifugation (Ficoll-Paque); CD138+ cells were then selected via magnetic beads and columns and incubated in RPMI 1640, 10% FCS, L-glutamine, and P/S at 37° C.
as §1, §2

[11] = test system: relapse/refractory MM patients; conditions: in combination with BTZ; cited from earlier work
[12] = test system: BM stromal cells cocultured with MM cells; test: Stromal Cyp26a1 upregulation by MM cells in coculture; type: cell-based, mouse; conditions: SMO inhibitor in coculture
Experimental: as §1, §2
To confirm the role of paracrine Hedgehog on this interaction, smoothened (Smo), a membrane receptor that transduces SHH signaling, was knocked out at the genomic level in the mesenchymal compartment. For this, BM mesenchymal cells derived from Smo^fl/fl mice were transduced with a retroviral vector encoding Cre recombinase (Smo-KO stroma). […]

[13] = BM stromal cell cocultures incubated with compound

## CC1(C)CCC(C)(C)c2cc(NC(=O)c3ccc(C(=O)O)cc3)ccc21 [AM80, 4-[(5,6,7,8-tetrahydro-5,5,8,8-tetramethyl-2-naphthalenyl)carbamoyl]benzoic acid]
[1]
  clonogenic growth (CFU) compared to control: decrease in clonogenic growth compared to control
  clonogenic growth: inhibited clonogenic growth in the presence of stroma but not as effectively as IRX5183
[2]
  differentiation and sensitivity to FLT3 inhibitors: differentiates FMS-like tyrosine kinase 3/internal tandem duplication (FLT3/ITD) acute myeloid leukemia (AML) cells and increase their sensitivity to FLT3 inhibitors

## CC1=C(/C=C/C(C)=C/C=C/C(C)=C/C(=O)O)C(C)(C)CCC1 [ATRA, All-trans retinoic acid]
[1]
  clonogenic growth: inhibited clonogenic growth only in the absence of stroma
[3]
  clinical effectiveness: clinically ineffective
[4]
  differentiation and apoptosis: causes terminal differentiation and apoptosis

## CC(C)C[C@H](NC(=O)[C@H](Cc1ccccc1)NC(=O)c1cnccn1)B(O)O [BTZ, bortezomib]
[5]
  tumor burden (bioluminescence): decreased tumor growth compared with untreated controls
[6]; tumors carrying Smo-KO stroma, BTZ 0.5 mg/kg i.p. twice weekly
  tumor response (bioluminescence): significant response
[6]; tumors with WT stroma, BTZ 0.5 mg/kg i.p. twice weekly
  tumor response (bioluminescence): refractory to BTZ treatment
[7]; H929 cells, 5-day stroma coculture, fresh media 0 to 48 hr, then BTZ
  BTZ resistance after separation from BM stroma: remained partially resistant to BTZ for up to 48 hr following detachment from stroma
[7]; Smo-KO stroma compared with WT stroma
  sensitivity of MM cells to BTZ: increased sensitivity to BTZ
[7]; absence of BM stroma (liquid), BTZ 2.5 nM 48 hr
  sensitivity of MM cells to BTZ: highly sensitive to BTZ
[7]; after 5 days incubation with BM stroma, BTZ 2.5 nM 48 hr
  sensitivity of MM cells to BTZ: incubation with BM stroma induced BTZ resistance

## IL-6: cytokine, soluble factor produced by MM cells
[8]
  upregulation of CYP26A1 on BM stromal cells: no significant effects

## TNF-α
[8]
  upregulation of CYP26A1 on BM stromal cells: no significant effects

## CCC(CC)C(c1ccc(Nc2nc3ccccc3s2)cc1)n1cncn1 (centres unmarked) [R115866]
[9]; [13]
  surface CD138 expression: restored CD138 expression
[7]; H929 cells, coculture treated with compound 1 μM before separation
  effect on BTZ resistance after separation from BM stroma: prevented the development of a BTZ-resistant phenotype
[7]; then BTZ
  effect on stroma-induced BTZ resistance: overcome
[10]
  expression of differentiation markers by qRT-PCR or flow cytometry: did not significantly affect the expression of differentiation markers
[10]; stroma cocultures
  mRNA expression of B cell and PC markers (BCL6, BLIMP1, XBP1s, CHOP): restored all markers to levels comparable to those of liquid control conditions

## c1cc(CN2CCCNCCNCCCNCC2)ccc1CN1CCCNCCNCCCNCC1 [plerixafor]
[11]
  response rates: improved response rates

## CC1=C2C[C@H]3[C@@H](CC=C4C[C@@H](O)CC[C@@]43C)[C@@H]2CC[C@]12O[C@@H]1C[C@H](C)CN[C@H]1[C@H]2C [cyclopamine]
[12]
  stromal Cyp26a1 upregulation by MM cells: partially overcame stromal Cyp26a1 upregulation by MM cells

## CCc1ccc(C2=CC(C)(C)Sc3ccc(C#Cc4ccc(C(=O)O)cc4)cc32)cc1 [AGN194310]
[9]; absence of stroma, incubation with compound
  surface CD138 expression: markedly decreased
[7]; absence of stroma, compound 1 μM 5 days, then BTZ
  effect on BTZ sensitivity: decreasing BTZ sensitivity
[10]; absence of stroma (Liquid)
  mRNA expression of B cell and PC markers (BCL6, BLIMP1, XBP1s, CHOP): mimicked the changes induced by BM stromal cells

## CC1(C)CCC(C)(C)c2c1cc(C(=O)Nc1cc(F)c(C(=O)O)c(F)c1)c(O)c2Cl [IRX5183]
[5]; IRX 10 mg/kg daily combined with BTZ 0.5 mg/kg twice weekly
  disease burden (bioluminescence): significant (P<0.01) decrease in disease burden
[5]
  tumor burden (bioluminescence): decrease in tumor burden compared with untreated mice
[1]
  clonogenic growth (CFU) compared to control: decrease in clonogenic growth compared to control
  clonogenic growth: inhibited clonogenic growth to a similar extent in the presence or absence of stroma
[9]; [13]
  surface CD138 expression: restored CD138 expression
[6]; IRX 10 mg/kg i.p. daily alone
  growth of tumors bearing WT versus Smo-KO stroma: not different
[6]; combination of IRX 10 mg/kg daily and BTZ 0.5 mg/kg twice weekly, WT and Smo-KO stroma
  tumor response (bioluminescence): significant and equivalent response, regardless of the phenotype of the stromal compartment
[7]; then BTZ
  effect on stroma-induced BTZ resistance: overcome
[10]
  expression of differentiation markers by qRT-PCR or flow cytometry: induced comparable changes, irrespective of the presence or absence of BM stroma
[10]; stroma cocultures
  mRNA expression of B cell and PC markers (BCL6, BLIMP1, XBP1s, CHOP): restored all markers to levels comparable to those of liquid control conditions

— patent publication US11648222B2, “Use of CYP26-resistant RAR alpha selective agonists in the treatment of cancer” (Io Therapeutics, Inc., priority 2015, dated 2023)
